Experimental data reported in ChEMBL document CHEMBL1201862, “PubChem BioAssay data set” (2004).
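Growth conditions: 96-well plates. Treatment: test compound, 48 hours, 5 concentrations. Analysis: linear interpolation between bracketing concentrations; unreached endpoints set to highest concentration. GI50 marks 50% less growth.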 The source made the active and inactive calls. No stated cut-off is given here; in the data, active = GI50 up to about 1.1 µM and inactive = higher.

Columns and labels:
Test in all cases: NCI anticancer screen, dose series, 48 h
OVCAR-4 = test system: OVCAR-4
UO-31 = test system: UO-31
OVCAR-5 = test system: OVCAR-5
HCT-15 = test system: HCT-15
HOP-92 = test system: HOP-92
SF-295 = test system: SF-295
CAKI-1 = test system: CAKI-1
MOLT-4 = test system: MOLT-4
SK-MEL-28 = test system: SK-MEL-28
OVCAR-3 = test system: OVCAR-3
K562 = test system: K562
CCRF-CEM = test system: CCRF-CEM
M14 = test system: M14
A549 = test system: A549
UACC-62 = test system: UACC-62
IGROV-1 = test system: IGROV-1
HT-29 = test system: HT-29
NCI-H226 = test system: NCI-H226
EKVX = test system: EKVX
HCT-116 = test system: HCT-116

In the case of `CN(C)c1ccc(/C=C2\N=C(c3ccc(N)cc3)OC2=O)cc1`, the GI50 (OVCAR-4) is reported as > 100 µM (inactive), the GI50 (UO-31) is reported as > 100 µM (inactive) and the GI50 (OVCAR-5) is reported as > 100 µM (inactive). The GI50 (HCT-15) was > 100 µM, the GI50 (HOP-92) was > 100 µM (inactive) and the GI50 (SF-295) was > 100 µM (inactive). The GI50 (CAKI-1) was > 100 µM (inactive), the GI50 (MOLT-4) was > 100 µM (inactive) and the GI50 (SK-MEL-28) was > 100 µM (inactive). For the same compound, the GI50 (OVCAR-3) was > 100 µM (inactive), the GI50 (K562) was 38.8 µM (inactive) and the GI50 (CCRF-CEM) was > 100 µM (inactive). For the same compound, the GI50 (M14) was > 100 µM (inactive), the GI50 (A549) was > 100 µM (inactive) and the GI50 (UACC-62) was > 100 µM (inactive). The GI50 (IGROV-1) was > 100 µM (inactive), the GI50 (HT-29) was > 100 µM (inactive) and the GI50 (NCI-H226) was > 100 µM (inactive). For the same compound, the GI50 (EKVX) was > 100 µM (inactive).

For `NC(=O)CCSC(CC(=O)c1ccc(Cl)cc1)c1ccc(Cl)cc1` (centres undefined), the GI50 (OVCAR-4) was 16.8 µM (inactive), the GI50 (UO-31) was 26.7 µM (inactive) and the GI50 (OVCAR-5) was 32.7 µM (inactive). For the same compound, the GI50 (HCT-15) was 10.5 µM, the GI50 (HOP-92) was 15 µM (inactive) and the GI50 (SF-295) was 25.2 µM (inactive). For the same compound, the GI50 (CAKI-1) was 12.4 µM (inactive), the GI50 (HCT-116) was 14.7 µM (inactive) and the GI50 (MOLT-4) was 10.4 µM (inactive). For the same compound, the GI50 (SK-MEL-28) was 28.4 µM (inactive), the GI50 (OVCAR-3) was 19.2 µM (inactive) and the GI50 (K562) was 7.1 µM (inactive). The GI50 (CCRF-CEM) was 2.93 µM (inactive), the GI50 (M14) was 27.2 µM (inactive) and the GI50 (A549) was 29.9 µM (inactive). For the same compound, the GI50 (UACC-62) was 16.8 µM (inactive), the GI50 (IGROV-1) was 16.2 µM (inactive) and the GI50 (HT-29) was 19.9 µM (inactive). For the same compound, the GI50 (NCI-H226) was 36 µM (inactive) and the GI50 (EKVX) was 28.2 µM (inactive).

In the case of `C=C1C(=O)OC2CC(C)C3C=CC(=O)C3CC12` (centres undefined), the GI50 (OVCAR-4) is reported as 2.95 µM (inactive), the GI50 (UO-31) is reported as 2.9 µM (inactive) and the GI50 (OVCAR-5) is reported as 3.29 µM (inactive). For the same compound, the GI50 (HCT-15) was 1.85 µM, the GI50 (HOP-92) was 1.88 µM (inactive) and the GI50 (SF-295) was 14.6 µM (inactive). For the same compound, the GI50 (CAKI-1) was 2.17 µM (inactive), the GI50 (HCT-116) was 1.26 µM (inactive) and the GI50 (MOLT-4) was 1.5 µM (inactive). For the same compound, the GI50 (SK-MEL-28) was 1.68 µM (inactive), the GI50 (OVCAR-3) was 5.13 µM (inactive) and the GI50 (K562) was 1.46 µM (inactive). For the same compound, the GI50 (CCRF-CEM) was 0.428 µM (active), the GI50 (M14) was 1.62 µM (inactive) and the GI50 (A549) was 7.93 µM (inactive). For the same compound, the GI50 (UACC-62) was 1.71 µM (inactive), the GI50 (IGROV-1) was 3.62 µM (inactive) and the GI50 (HT-29) was 1.72 µM (inactive). The GI50 (NCI-H226) was 2.64 µM (inactive) and the GI50 (EKVX) was 12.1 µM (inactive).

With `CC(C)(O)C1COC2=C1C(=O)c1ccccc1C2=O` (centres undefined) the GI50 (OVCAR-4) was 71 µM (inactive), the GI50 (UO-31) was 81.1 µM (inactive) and the GI50 (OVCAR-5) was 23.7 µM (inactive). The GI50 (HCT-15) was 27.5 µM, the GI50 (HOP-92) was 27.5 µM (inactive) and the GI50 (SF-295) was 42.5 µM (inactive). The GI50 (CAKI-1) was 60.7 µM (inactive), the GI50 (HCT-116) was 25.3 µM (inactive) and the GI50 (MOLT-4) was 25.6 µM (inactive). For the same compound, the GI50 (SK-MEL-28) was 23.2 µM (inactive), the GI50 (OVCAR-3) was 24.9 µM (inactive) and the GI50 (K562) was 35.2 µM (inactive). The GI50 (CCRF-CEM) was 46.2 µM (inactive), the GI50 (M14) was 35.6 µM (inactive) and the GI50 (A549) was > 100 µM (inactive). For the same compound, the GI50 (UACC-62) was 22.9 µM (inactive), the GI50 (IGROV-1) was 40.6 µM (inactive) and the GI50 (HT-29) was 44.4 µM (inactive). The GI50 (NCI-H226) was 32.5 µM (inactive) and the GI50 (EKVX) was 32.3 µM (inactive).

In the case of `O=S(=O)(SCc1ccccc1)C(c1ccccc1)c1ccccc1`, the GI50 (OVCAR-4) is reported as 48.9 µM (inactive), the GI50 (UO-31) is reported as 64.6 µM (inactive) and the GI50 (OVCAR-5) is reported as > 100 µM (inactive). For the same compound, the GI50 (HCT-15) was 30.5 µM, the GI50 (HOP-92) was 5.57 µM (inactive) and the GI50 (SF-295) was 44.1 µM (inactive). For the same compound, the GI50 (CAKI-1) was 31 µM (inactive), the GI50 (HCT-116) was 33.4 µM (inactive) and the GI50 (MOLT-4) was 3.7 µM (inactive). For the same compound, the GI50 (SK-MEL-28) was 48.3 µM (inactive), the GI50 (OVCAR-3) was 29.1 µM (inactive) and the GI50 (K562) was 6.67 µM (inactive). The GI50 (CCRF-CEM) was 4.21 µM (inactive), the GI50 (M14) was 24 µM (inactive) and the GI50 (A549) was 32 µM (inactive). The GI50 (UACC-62) was 27.5 µM (inactive), the GI50 (IGROV-1) was 32.7 µM (inactive) and the GI50 (HT-29) was 28.6 µM (inactive). The GI50 (NCI-H226) was 22.5 µM (inactive) and the GI50 (EKVX) was 60.3 µM (inactive).

`Cc1cccc(C)c1NC(=S)N/C=C(\C#N)C(N)=O` was tested, and the GI50 (OVCAR-4) was > 100 µM (inactive), the GI50 (UO-31) was > 100 µM (inactive) and the GI50 (OVCAR-5) was > 100 µM (inactive). For the same compound, the GI50 (HCT-15) was > 100 µM, the GI50 (HOP-92) was > 100 µM (inactive) and the GI50 (SF-295) was > 100 µM (inactive). For the same compound, the GI50 (CAKI-1) was > 100 µM (inactive), the GI50 (HCT-116) was > 100 µM (inactive) and the GI50 (MOLT-4) was > 100 µM (inactive). For the same compound, the GI50 (SK-MEL-28) was > 100 µM (inactive), the GI50 (OVCAR-3) was > 100 µM (inactive) and the GI50 (K562) was > 100 µM (inactive). The GI50 (CCRF-CEM) was > 100 µM (inactive), the GI50 (M14) was > 100 µM (inactive) and the GI50 (A549) was > 100 µM (inactive). For the same compound, the GI50 (UACC-62) was > 100 µM (inactive), the GI50 (IGROV-1) was > 100 µM (inactive) and the GI50 (HT-29) was > 100 µM (inactive). The GI50 (NCI-H226) was > 100 µM (inactive) and the GI50 (EKVX) was > 100 µM (inactive).

In the case of `CC(=O)NCCc1c[nH]c2ccc(Cl)cc12`, the GI50 (OVCAR-4) is reported as > 100 µM (inactive), the GI50 (UO-31) is reported as > 100 µM (inactive) and the GI50 (OVCAR-5) is reported as > 100 µM (inactive). The GI50 (HCT-15) was > 100 µM, the GI50 (HOP-92) was 79.8 µM (inactive) and the GI50 (SF-295) was > 100 µM (inactive). The GI50 (CAKI-1) was > 100 µM (inactive), the GI50 (HCT-116) was > 100 µM (inactive) and the GI50 (MOLT-4) was > 100 µM (inactive). The GI50 (SK-MEL-28) was > 100 µM (inactive), the GI50 (OVCAR-3) was > 100 µM (inactive) and the GI50 (K562) was > 100 µM (inactive). The GI50 (CCRF-CEM) was 60.4 µM (inactive), the GI50 (M14) was 90.2 µM (inactive) and the GI50 (A549) was > 100 µM (inactive). The GI50 (UACC-62) was > 100 µM (inactive), the GI50 (IGROV-1) was > 100 µM (inactive) and the GI50 (HT-29) was > 100 µM (inactive). The GI50 (NCI-H226) was > 100 µM (inactive) and the GI50 (EKVX) was > 100 µM (inactive).
